Results published in ChEMBL document CHEMBL1201862, “PubChem BioAssay data set” (2004).
Each block holds one molecule with its values, some of them ahead of it. Activity calls are given as the source filed them.

Legend:
[1] = molecular target: Prothrombin (Bos taurus, UniProt P00735); experiment: thrombin inhibition, dose response, biochemical, fluorescence polarization, uHTS hits (AID 602369); format: functional
[2] = molecular target: 26S proteasome non-ATPase regulatory subunit 14 (Homo sapiens, UniProt O00487); experiment: inhibition of proteasome subunit RPN11 – biochemical, fluorescence polarization, uHTS hits, confirmation (AID 602368); format: functional
Chain of 26S proteasome non-ATPase regulatory subunit 14 (O00487 whole entry): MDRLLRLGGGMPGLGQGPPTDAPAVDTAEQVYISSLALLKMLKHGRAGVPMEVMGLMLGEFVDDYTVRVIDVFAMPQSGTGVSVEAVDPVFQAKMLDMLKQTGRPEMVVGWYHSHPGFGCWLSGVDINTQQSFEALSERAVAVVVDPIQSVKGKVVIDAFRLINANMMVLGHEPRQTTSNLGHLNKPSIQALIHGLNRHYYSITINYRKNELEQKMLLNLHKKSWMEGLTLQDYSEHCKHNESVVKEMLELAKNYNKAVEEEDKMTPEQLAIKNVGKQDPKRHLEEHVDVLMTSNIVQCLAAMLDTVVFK

[3] = molecular target: 72 kDa type IV collagenase (Homo sapiens, UniProt P08253); experiment: Dose Response validation of uHTS RPN11 inhibitor hits using a MMP-2 Fluorescence assay.; format: functional
Chain of 72 kDa type IV collagenase (P08253 whole entry): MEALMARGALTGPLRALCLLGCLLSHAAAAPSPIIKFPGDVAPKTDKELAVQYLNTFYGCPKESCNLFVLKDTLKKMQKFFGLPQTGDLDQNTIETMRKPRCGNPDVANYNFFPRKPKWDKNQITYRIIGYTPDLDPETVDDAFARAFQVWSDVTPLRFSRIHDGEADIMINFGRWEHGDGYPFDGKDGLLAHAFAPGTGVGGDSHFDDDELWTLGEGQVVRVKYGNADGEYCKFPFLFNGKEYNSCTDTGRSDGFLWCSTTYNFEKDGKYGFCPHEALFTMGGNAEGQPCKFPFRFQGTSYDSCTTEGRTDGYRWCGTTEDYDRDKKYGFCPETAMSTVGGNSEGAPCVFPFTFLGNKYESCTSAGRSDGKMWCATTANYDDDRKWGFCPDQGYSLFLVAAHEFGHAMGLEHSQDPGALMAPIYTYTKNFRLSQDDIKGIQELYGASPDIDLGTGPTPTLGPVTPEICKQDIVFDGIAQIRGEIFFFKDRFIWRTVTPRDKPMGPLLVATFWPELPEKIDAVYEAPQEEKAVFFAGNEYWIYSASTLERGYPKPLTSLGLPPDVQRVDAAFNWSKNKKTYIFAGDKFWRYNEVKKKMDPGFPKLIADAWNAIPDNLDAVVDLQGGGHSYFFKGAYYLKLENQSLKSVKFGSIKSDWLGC

[4] = molecular target: T1, SUMO-activating enzyme (Homo sapiens, UniProt Q9UBT2); experiment: inhibitors of in vitro SUMOylation cascade, primary screen, biochemical, HTRF, uHTS (AID 2006); format: protein-complex assay
T1 sequence (Q9UBE0 whole entry): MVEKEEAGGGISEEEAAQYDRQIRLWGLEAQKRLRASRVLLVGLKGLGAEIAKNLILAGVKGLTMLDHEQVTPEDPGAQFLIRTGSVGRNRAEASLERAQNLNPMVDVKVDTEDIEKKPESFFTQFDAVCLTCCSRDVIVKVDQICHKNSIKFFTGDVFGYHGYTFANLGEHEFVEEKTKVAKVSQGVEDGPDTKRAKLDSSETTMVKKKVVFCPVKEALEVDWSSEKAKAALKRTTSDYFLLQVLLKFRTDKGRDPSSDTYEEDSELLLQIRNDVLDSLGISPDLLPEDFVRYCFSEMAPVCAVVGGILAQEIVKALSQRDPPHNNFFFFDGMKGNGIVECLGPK
T1 sequence (Q9UBT2 whole entry): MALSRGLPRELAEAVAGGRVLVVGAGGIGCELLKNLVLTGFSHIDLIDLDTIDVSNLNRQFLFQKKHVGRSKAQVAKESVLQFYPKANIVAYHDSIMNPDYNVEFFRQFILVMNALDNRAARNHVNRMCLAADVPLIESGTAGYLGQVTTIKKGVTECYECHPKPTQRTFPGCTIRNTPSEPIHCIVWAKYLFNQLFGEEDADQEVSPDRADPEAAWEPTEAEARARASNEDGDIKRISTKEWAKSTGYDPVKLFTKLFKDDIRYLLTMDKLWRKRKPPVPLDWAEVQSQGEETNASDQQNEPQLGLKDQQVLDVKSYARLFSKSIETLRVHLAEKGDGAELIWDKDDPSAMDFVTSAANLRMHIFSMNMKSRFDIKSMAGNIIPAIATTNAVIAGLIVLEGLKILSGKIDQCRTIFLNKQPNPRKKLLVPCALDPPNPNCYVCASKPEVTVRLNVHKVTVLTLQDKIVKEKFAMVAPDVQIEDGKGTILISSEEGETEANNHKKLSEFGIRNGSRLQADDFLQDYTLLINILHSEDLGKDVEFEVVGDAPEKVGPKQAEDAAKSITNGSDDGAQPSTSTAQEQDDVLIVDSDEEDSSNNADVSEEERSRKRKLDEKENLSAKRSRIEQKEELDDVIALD

[5] = cytotoxicity in HEK-293T cells, dose response, cytotoxicity control for BCR NF-kB inhibitor project, luminescence, B-cell screen hits (AID 489021); format: functional, cell-based;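 further: HEK-293T cells carrying an NF-kB luciferase reporter; cells exposed to compound for about 14 hours before viability readout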
[6] = molecular target: T1, SUMO-activating enzyme; experiment: SUMOylation inhibitor hit validation, confirmation, SUMOylation inhibitor project, biochemical, AlphaScreen (AID 2018); format: functional
[7] = molecular target: Protein disulfide-isomerase (Homo sapiens, UniProt P07237); experiment: PDI inhibitors, insulin aggregation turbidity, dose response, biochemical, absorbance, cherry-picked samples (AID 602350); format: functional
Chain of Protein disulfide-isomerase (P07237 whole entry): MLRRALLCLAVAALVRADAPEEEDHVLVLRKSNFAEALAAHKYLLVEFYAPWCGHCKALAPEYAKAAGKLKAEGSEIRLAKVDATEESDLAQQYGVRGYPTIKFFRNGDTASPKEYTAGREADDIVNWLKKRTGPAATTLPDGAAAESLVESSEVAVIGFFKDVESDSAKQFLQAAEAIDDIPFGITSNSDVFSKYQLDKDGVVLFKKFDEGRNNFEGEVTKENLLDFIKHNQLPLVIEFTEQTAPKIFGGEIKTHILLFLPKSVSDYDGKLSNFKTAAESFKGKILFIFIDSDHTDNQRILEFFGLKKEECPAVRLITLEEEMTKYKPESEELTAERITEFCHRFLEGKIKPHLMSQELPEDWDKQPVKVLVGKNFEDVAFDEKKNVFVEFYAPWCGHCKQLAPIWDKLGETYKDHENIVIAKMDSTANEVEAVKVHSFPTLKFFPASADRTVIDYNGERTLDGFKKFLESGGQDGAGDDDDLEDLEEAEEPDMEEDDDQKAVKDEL

[8] = molecular target: T2, Sentrin-specific protease 8 (Homo sapiens, UniProt Q96LD8); experiment: SENP8 protease inhibitors, SAR follow-up, biochemical, luminescence (AID 504501); format: functional
T2 sequence (Q96LD8 whole entry): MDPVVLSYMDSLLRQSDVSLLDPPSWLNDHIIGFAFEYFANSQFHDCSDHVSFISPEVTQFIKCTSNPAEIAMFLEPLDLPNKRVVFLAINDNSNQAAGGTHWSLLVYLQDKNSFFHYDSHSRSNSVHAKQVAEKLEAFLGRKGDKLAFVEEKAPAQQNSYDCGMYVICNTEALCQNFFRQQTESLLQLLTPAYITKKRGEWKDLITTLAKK

[9] = molecular target: T3, Sentrin-specific protease 7 (Homo sapiens, UniProt Q9BQF6); experiment: SENP7 protease inhibitors, SAR follow-up, biochemical, luminescence (AID 504497); format: functional
T3 sequence (Q9BQF6 whole entry): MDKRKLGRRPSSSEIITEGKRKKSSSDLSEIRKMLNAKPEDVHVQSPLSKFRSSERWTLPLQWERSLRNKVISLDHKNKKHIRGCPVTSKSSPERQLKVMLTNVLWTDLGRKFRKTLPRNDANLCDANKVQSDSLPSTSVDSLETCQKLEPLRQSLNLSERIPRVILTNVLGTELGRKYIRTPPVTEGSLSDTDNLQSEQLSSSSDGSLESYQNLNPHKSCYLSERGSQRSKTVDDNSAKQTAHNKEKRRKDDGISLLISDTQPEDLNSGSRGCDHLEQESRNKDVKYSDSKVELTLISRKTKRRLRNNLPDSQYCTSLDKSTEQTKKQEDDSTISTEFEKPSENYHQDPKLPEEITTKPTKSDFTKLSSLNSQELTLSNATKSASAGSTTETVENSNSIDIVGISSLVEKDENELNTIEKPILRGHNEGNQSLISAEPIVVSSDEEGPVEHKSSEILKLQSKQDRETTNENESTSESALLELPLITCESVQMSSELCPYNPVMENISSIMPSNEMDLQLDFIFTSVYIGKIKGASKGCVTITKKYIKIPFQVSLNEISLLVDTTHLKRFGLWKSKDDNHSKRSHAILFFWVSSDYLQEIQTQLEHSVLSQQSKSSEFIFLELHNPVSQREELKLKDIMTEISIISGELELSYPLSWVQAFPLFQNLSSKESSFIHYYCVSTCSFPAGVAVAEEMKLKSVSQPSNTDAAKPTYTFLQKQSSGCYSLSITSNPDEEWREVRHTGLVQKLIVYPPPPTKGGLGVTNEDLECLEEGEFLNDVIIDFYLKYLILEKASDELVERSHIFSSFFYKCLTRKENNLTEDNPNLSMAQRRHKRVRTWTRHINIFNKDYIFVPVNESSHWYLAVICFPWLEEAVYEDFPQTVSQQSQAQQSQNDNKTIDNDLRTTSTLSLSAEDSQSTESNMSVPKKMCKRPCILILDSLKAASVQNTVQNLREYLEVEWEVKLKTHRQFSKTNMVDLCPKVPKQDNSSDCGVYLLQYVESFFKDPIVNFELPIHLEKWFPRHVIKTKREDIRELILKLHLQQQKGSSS

[10] = molecular target: T4, Caspase-3 (Homo sapiens, UniProt P42574); experiment: SAR Analysis of small molecule inhibitors of Sentrin-specific proteases (SENPs) using a Caspase-3 Selectivity assay. [Related pubchem assays (depositor defined):AID2540, AID2599, AID434973, AID489001]; format: functional
T4 sequence (P42574 whole entry): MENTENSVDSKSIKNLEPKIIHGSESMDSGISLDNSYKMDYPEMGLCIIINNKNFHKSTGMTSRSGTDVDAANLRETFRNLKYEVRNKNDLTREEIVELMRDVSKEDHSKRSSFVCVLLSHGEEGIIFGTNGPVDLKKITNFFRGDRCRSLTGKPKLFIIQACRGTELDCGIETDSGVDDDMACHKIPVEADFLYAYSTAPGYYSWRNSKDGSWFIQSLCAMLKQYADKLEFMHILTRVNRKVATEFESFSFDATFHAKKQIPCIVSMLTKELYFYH

[11] = molecular target: T5, Sentrin-specific protease 6 (Homo sapiens, UniProt Q9GZR1); experiment: SAR Analysis of small molecule inhibitors of Sentrin-specific protease 6 (SENP6) using a Luminescent assay. [Related pubchem assays (depositor defined):AID2582, AID2599]; format: functional
T5 sequence (Q9GZR1 whole entry): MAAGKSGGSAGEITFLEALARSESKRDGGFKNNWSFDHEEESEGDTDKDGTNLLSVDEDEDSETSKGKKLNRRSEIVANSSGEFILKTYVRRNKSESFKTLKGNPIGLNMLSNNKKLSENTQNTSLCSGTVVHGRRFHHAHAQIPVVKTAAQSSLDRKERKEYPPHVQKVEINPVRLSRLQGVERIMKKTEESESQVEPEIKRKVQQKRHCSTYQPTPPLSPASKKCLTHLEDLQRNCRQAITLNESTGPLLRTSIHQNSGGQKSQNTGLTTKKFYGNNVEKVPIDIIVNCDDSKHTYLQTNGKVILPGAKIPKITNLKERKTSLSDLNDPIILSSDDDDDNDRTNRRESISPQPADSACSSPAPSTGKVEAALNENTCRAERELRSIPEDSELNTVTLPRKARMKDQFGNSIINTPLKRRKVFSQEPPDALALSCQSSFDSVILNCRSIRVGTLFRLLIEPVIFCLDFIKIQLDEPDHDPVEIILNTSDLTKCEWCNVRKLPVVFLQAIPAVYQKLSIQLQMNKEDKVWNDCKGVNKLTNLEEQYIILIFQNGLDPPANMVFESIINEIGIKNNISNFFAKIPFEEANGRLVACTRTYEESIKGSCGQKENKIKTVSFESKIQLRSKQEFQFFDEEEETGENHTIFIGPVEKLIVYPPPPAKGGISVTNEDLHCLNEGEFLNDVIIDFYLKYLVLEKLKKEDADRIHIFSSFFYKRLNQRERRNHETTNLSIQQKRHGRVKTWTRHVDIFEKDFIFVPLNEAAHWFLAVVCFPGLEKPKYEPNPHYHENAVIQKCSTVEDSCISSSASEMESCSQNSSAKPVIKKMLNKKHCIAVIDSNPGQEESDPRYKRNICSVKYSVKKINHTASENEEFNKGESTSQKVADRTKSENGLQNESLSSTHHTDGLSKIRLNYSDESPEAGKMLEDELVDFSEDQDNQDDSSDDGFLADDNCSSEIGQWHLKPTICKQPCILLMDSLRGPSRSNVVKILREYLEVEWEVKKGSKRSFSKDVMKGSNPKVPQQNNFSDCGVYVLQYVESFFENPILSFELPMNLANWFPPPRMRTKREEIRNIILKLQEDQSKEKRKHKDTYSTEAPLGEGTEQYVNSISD

[12] = molecular target: DNA dC->dU-editing enzyme APOBEC-3G (Homo sapiens, UniProt Q9HC16); experiment: APOBEC3G deaminase inhibitors, SAR follow-up, biochemical, fluorescence, single-stranded DNA substrate (AID 602136); format: functional; conditions: read-out: IC50_Mean
Chain of DNA dC->dU-editing enzyme APOBEC-3G (Q9HC16 whole entry): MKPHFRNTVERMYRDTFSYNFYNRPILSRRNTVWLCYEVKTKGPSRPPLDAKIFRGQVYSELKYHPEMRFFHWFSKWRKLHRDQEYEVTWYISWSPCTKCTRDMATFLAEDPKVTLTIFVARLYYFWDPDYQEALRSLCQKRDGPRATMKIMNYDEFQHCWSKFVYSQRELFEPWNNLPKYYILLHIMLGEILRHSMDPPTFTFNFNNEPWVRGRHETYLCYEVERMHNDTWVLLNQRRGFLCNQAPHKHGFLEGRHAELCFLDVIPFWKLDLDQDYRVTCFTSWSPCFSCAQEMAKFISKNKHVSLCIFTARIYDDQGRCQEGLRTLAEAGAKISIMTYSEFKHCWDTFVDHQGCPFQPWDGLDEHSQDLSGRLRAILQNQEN

[13] = molecular target: DNA dC->dU-editing enzyme APOBEC-3A (Homo sapiens, UniProt P31941); experiment: SAR analysis of small molecule inhibitors of APOBEC3A DNA Deaminase via a fluorescence-based single-stranded DNA deaminase assay.; format: functional; conditions: read-out: IC50_Mean
Chain of DNA dC->dU-editing enzyme APOBEC-3A (P31941 whole entry): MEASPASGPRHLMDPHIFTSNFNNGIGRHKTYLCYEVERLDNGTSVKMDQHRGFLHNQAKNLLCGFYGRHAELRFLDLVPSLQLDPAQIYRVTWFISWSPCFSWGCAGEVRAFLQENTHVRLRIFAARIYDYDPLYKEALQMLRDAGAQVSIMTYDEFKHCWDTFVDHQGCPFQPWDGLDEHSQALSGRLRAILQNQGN

[14] = inhibitors of intracellular T. cruzi replication, confirmation, NIH3T3 host cells, beta-gal luminescence (AID 2044); format: functional, cell-based;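 further: intracellular parasites grown in NIH/3T3 mouse fibroblasts as host cells; luminescent beta-galactosidase reporter signal from transgenic T. cruzi replicating inside host cells; inhibitors lower the luminescence signal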
[15] = test system: HEK293; experiment: optical interference in Abeta FP readout, dose response, artefact control for IDE activator project, biochemical, fluorescence polarization (AID 588442); format: functional, cell-based; conditions: Homo sapiens
[16] = cytotoxicity toward NIH3T3 fibroblasts, dose response, counter-screen, cell-based, ATP luminescence, mouse fibroblasts (AID 2010); format: functional;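 further: cells exposed to compound for about 90 hours before reading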
[17] = molecular target: Eukaryotic translation initiation factor 4E (Mus musculus, UniProt P63073); experiment: eIF4E–eIF4G protein interaction inhibitors, dose response, biochemical, TR-FRET (AID 855); format: functional;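 further: potency for disrupting eIF4E binding to eIF4GI seen as loss of FRET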
Chain of Eukaryotic translation initiation factor 4E (P63073 whole entry): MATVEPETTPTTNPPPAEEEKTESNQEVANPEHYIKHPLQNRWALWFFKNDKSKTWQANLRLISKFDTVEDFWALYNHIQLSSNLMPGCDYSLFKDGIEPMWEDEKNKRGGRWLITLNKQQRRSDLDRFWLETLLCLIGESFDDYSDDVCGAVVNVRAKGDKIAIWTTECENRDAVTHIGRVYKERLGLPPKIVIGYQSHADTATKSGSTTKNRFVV

[18] = molecular target: T6, Insulin-degrading enzyme (Homo sapiens, UniProt P14735); experiment: activators of endogenous IDE in HEK cells, dose response, cell-based, fluorescence polarization (AID 588439); format: functional
T6 sequence (P14735 whole entry): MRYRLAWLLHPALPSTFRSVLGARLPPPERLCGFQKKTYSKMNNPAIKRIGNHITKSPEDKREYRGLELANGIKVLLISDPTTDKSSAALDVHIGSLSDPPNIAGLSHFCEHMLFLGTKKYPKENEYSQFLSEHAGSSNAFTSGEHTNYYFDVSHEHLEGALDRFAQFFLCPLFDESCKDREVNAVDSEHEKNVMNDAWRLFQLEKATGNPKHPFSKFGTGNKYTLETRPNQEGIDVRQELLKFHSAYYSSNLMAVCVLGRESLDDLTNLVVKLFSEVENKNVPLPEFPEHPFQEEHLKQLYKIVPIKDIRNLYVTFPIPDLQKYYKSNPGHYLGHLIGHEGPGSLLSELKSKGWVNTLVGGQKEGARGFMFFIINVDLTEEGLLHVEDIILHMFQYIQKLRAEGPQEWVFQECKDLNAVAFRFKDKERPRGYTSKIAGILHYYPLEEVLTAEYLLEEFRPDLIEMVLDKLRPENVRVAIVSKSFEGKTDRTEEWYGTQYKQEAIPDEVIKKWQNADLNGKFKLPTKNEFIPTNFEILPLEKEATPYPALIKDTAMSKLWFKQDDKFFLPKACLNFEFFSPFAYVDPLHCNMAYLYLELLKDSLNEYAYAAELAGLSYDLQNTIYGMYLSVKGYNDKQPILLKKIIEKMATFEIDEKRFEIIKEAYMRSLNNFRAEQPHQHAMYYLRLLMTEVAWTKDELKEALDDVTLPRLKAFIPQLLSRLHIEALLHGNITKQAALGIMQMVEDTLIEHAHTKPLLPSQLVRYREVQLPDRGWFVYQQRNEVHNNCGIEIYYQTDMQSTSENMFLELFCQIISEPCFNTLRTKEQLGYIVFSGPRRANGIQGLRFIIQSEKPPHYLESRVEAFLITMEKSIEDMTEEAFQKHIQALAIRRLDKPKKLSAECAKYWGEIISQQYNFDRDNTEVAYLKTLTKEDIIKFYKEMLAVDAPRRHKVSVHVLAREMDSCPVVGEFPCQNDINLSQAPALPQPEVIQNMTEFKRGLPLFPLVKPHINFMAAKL

[19] = molecular target: T6, Insulin-degrading enzyme; experiment: activators of recombinant IDE enzyme, dose response, counter-screen for IDE activator project, biochemical, fluorescence polarization (AID 588681)
[20] = test system: HEK293; experiment: HEK cell cytotoxicity by LDH release, dose response, cytotoxicity control for IDE activator project, fluorescence, HEK cells (AID 588440); format: functional, cell-based; conditions: Homo sapiens;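 further: cytotoxicity by LDH release measuring loss of membrane integrity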

Compound: CCc1ccc(/C=C2/SC(=S)N(CCC(=O)Nc3ccc(C(=O)O)cc3)C2=O)cc1
IC50 [1]: 51.7 µM (active) | IC50 [2]: 18.1 µM (active) | IC50 [3]: > 100 µM (inactive) | IC50 [4]: 14.1 µM (active) | IC50 [5]: > 80 µM (inactive) | IC50 [6]: 4.15 µM (active)

AC50 [7]: 19.5 µM (active)
Compound: NNC(=O)c1cc(-c2ccc(O)cc2)nc2ccc(Br)cc12

IC50 [9]: > 99 µM (inactive) | IC50 [10]: > 99 µM (inactive) | IC50 [11]: > 99 µM (inactive)
Compound: Cc1cccc(-c2nc(/C=C/c3ccc(F)cc3)no2)c1
IC50 [8]: > 99 µM (inactive)

Compound: CCCc1nnc2c3c4c(sc3ncn12)CCCC4
IC50 [12]: > 99 µM (inactive) | IC50 [13]: > 99 µM (inactive)

Compound: CCN1CCN(CCNC(=O)c2ccc(/C=C3/Sc4ccccc4N(Cc4cccc(Cl)c4)C3=O)cc2)CC1
EC50 [14]: 1.41 µM (active) | EC50 [15]: > 55.9 µM (inactive) | EC50 [16]: 8.47 µM (active) | IC50 [17]: 50 µM (inactive) | EC50 [18]: > 54.7 µM (inactive) | EC50 [19]: 53.4 µM (inactive) | IC50 [20]: 19.5 µM (inactive)
